This test has as its system live parasites, most commonly a louse. Put plainly: Petri dish screening: drops of test formulation on live parasites. Format: in vivo. As to conditions: evaluation of solvents, method of Example 1. The source says: In one procedure that provides an evaluative method for determining effectiveness of commercial products, live parasites were removed from subjects' hair and placed into a Petri dish. One to two drops of test formulation were placed upon the test insect, most commonly a louse. The specimen was observed under magnification for initial movement, and was kept under observation for up to fifteen additional minutes. […] The effectiveness of the treatment was then rated on a 0-4 scale, with a score of 0 denoting total ineffectiveness and a score of 4 denoting total kill.

In the case of `CCCCOC(=O)CC(C)O` (stereo not shown) [Example B1, Butyl 3-hydroxybutyrate], the “Efficacy Score” value was 0 (No elimination of live lice after 5 minutes (100% live lice remain)).

These data come from US10334853B2, “Compositions and methods for treating ectoparasite infestation” (Larada Sciences, Inc., priority 2016, dated 2019).
